This note sets out measurements from patent publication US6355472B2, “Method for producing nucleoside-5′-phosphate ester” (Ajinomoto Co., Inc., priority 1996, dated 2002).

The subject of test [1] is acid phosphatase derived from Escherichia blattae. It is filed as biochemical, Escherichia blattae JCM 1650.
Test [2] has as its target T1, acid phosphatase derived from Morganella morganii (Morganella morganii, UniProt P28581).
T1 construct: made in house; host or cells: Morganella morganii NCIMB 10466 (native strain, not recombinant; purified from cell-free extract)
It is filed as biochemical, Morganella morganii NCIMB 10466.

Test [3] concerns Escherichia coli JM109/pEPI330. The experiment in a line: Production of various nucleoside-5′-phosphate esters using microbial cells of the mutant strain. Conditions: sodium pyrophosphate 12 g/dl, nucleoside 6 g/dl, cells 200 mg/dl dry weight, pH 4.0, 35° C., 32 hours. It is filed as cell-based. The procedure:
Escherichia coli JM109/pEPI330 into which the plasmid containing the gene encoding the acid phosphatase with lowered phosphomonoesterase activity had been introduced was inoculated to an L medium (50 ml) containing 100 μg/ml of ampicillin and 1 mM of IPTG, and it was cultivated at 37° C. for 16 hours.
Sodium pyrophosphate (12 g/dl), and inosine, guanosine, uridine, or cytidine (6 g/dl) as a phosphate group acceptor were dissolved in 100 mM sodium acetate buffer (pH 4.0), to which the microbial cells described above were added to give a cell concentration of 200 mg/dl as converted into a dry weight of the cells. The reaction mixture was incubated at 35° C. for 32 hours while maintaining pH at 4.0. Produced nucleotide contained only nucleoside-5′-phosphate ester. By-production of nucleoside-2′-phosphate ester and nucleoside-3′-phosphate ester was not observed at all.

Test [4] concerns E. coli JM109/pEPI380. Nature of the test: Production of various nucleoside-5′-phosphate esters using new mutant acid phosphatase gene-containing strain. It is filed as cell-based. Conditions: pyrophosphoric acid 15 g/dl, nucleoside 8 g/dl, cells 100 mg/dl dry weight, pH 4.0, 35° C., 12 hours. How it is done:
E. coli JM109/pEPI380 having introduced therein the plasmid containing the new mutant acid phosphatase gene was inoculated into 50 ml of an L medium containing 100 μg/ml of ampicillin and 1 mM of IPTG, and incubated at 37° C. for 16 hours.
Pyrophosphoric acid (15 g/dl) and 8 g/dl of inosine, […], uridine or cytidine as a phosphate acceptor were dissolved in a 100 mM acetate buffer ([…]). To this was added the above-mentioned strain such that the concentration reached 100 mg/dl in terms of the dry cell weight. The reaction was conducted at 35° C. for 12 hours while maintaining the pH at 4.0. The phosphorylation proceeded well with any of the nucleosides to form and accumulate the corresponding nucleoside-5′-phosphate esters. The nucleotide formed was only the nucleoside-5′-phosphate ester, and the formation of a nucleoside-2′-phosphate ester and a nucleoside-3′-phosphate ester as by-products was not observed at all.

Test [5] concerns acid phosphatase sample derived from Escherichia blattae. The experiment in a line: Phosphorylation reaction of various nucleosides by acid phosphatase sample. The format is biochemical. Conditions: sodium pyrophosphate 15 g/dl, nucleoside 3 g/dl, enzyme 50 units/dl, pH 4.0, 35° C., 3 hours. The procedure:
Sodium pyrophosphate (15 g/dl) and inosine, guanosine, uridine, or cytidine (3 g/dl) were dissolved in sodium acetate buffer (pH 4.0), to which the enzyme sample prepared in Example 4 was added so that its concentration was 50 units/dl. The reaction mixture was incubated at 35° C. for 3 hours while maintaining pH at 4.0.

Test [6] has as its target T2, acid phosphatase sample derived from Morganella morganii (Morganella morganii, UniProt P28581).
T2 construct: made in house; host or cells: Morganella morganii NCIMB 10466 (native strain, not recombinant; purified from cell-free extract)
The description is as above. The format is biochemical. Particulars: sodium pyrophosphate 10 g/dl, nucleoside 2 g/dl, enzyme 50 units/dl, pH 4.0, 30° C., 3 hours. How it is done:
Sodium pyrophosphate (10 g/dl) and inosine, guanosine, uridine, or cytidine (2 g/dl) as a phosphate group acceptor were dissolved in sodium acetate buffer (pH 4.0), to which the enzyme sample prepared in Example 1 was added so that its concentration was 50 units/dl. The reaction mixture was incubated at 30° C. for 3 hours while maintaining pH at 4.0.

Test [7] has as its system E. coli JM109/pEPI380. The experiment in a line: Production of 5′-inosinic acid from various phosphate donors using new mutant acid phosphatase gene-containing strain. The format is cell-based. Conditions: inosine 6 g/dl, phosphate donor 15 g/dl, cells 100 mg/dl dry weight, pH 4.0, 35° C., 12 hours. How it is done: E. coli JM109/pEPI380 having introduced therein the plasmid containing the new mutant acid phosphatase gene was inoculated into 50 ml of an L medium containing 100 μg/ml of ampicillin and 1 mM of IPTG, and incubated at 37 C. for 16 hours.
Inosine (6 g/dl) and 15 g/dl of a tripolyphosphate, a polyphosphate (“Polygon P”, a trade name for a product of Chiyoda Kagaku K.K.), […] or disodium carbamylphosphate were dissolved in a 100-mM acetate buffer (pH 4.0). To this was added the above-mentioned strain such that the concentration reached 100 mg/dl in terms of the dry cell weight. The reaction was conducted at 35° C. for 12 hours while maintaining the pH at 4.0. 5′-Inosinic acid was formed and accumulated at good efficiency with any of the phosphate donors. Especially when a polyphosphate was used as a phosphate donor, 5′-inosinic acid was accumulated in the largest amount.

The subject of test [8] is acid phosphatase sample derived from Escherichia blattae. The experiment in a line: Production of 5′-inosinic acid from various phosphate group donors by acid phosphatase sample. The format is biochemical. Conditions: inosine 2 g/dl, phosphate group donor 10 g/dl, enzyme 50 units/dl, pH 4.0, 35° C., 3 hours. How it is done: Inosine (2 g/dl) and sodium tripolyphosphate, sodium polyphosphate (trade name: Polygon P, produced by Chiyoda Chemical), disodium phenylphosphate, or disodium carbamyl phosphate (10 g/dl) as a phosphate group donor were dissolved in sodium acetate buffer (pH 4.0), to which the enzyme sample prepared in Example 4 was added so that its concentration was 50 units/dl. The reaction mixture was incubated at 35° C. for 3 hours while maintaining pH at 4.0.

Test [9] relates to Escherichia coli JM109/pEPI330. Nature of the test: Production of 5′-inosinic acid from various phosphate group donors using microbial cells of the mutant strain. Particulars: inosine 6 g/dl, phosphate group donor 12 g/dl, cells 200 mg/dl dry weight, pH 4.0, 35° C., 32 hours. The format is cell-based. How it is done:
Escherichia coli JM109/pEPI330 into which the plasmid containing the mutant acid phosphatase gene had been introduced was inoculated to an L medium (50 ml) containing 100 μg/ml of ampicillin and 1 mM of IPTG, and it was cultivated at 37° C. for 16 hours.
Inosine (6 g/dl) and sodium tripolyphosphate, sodium polyphosphate (trade name: Polygon P, produced by Chiyoda Chemical), disodium phenylphosphate, or disodium carbamyl phosphate (12 g/dl) as a phosphate group donor were dissolved in 100 mM sodium acetate buffer (pH 4.0), to which the microbial cells described above were added to give a cell concentration of 200 mg/dl as converted into a dry weight of the cells. The reaction mixture was incubated at 35° C. for 32 hours while maintaining pH at 4.0. 5′-Inosinic acid was efficiently produced and accumulated by using any of the phosphate group donors. However, the accumulated amount of 5′-inosinic acid was the highest when polyphosphoric acid was used as the phosphate group donor.

The target in test [10] is T2, acid phosphatase sample derived from Morganella morganii. Nature of the test: Production of 5′-inosinic acid from various phosphate group donors by acid phosphatase sample. The format is biochemical. Particulars: inosine 2 g/dl, phosphate group donor 10 g/dl, enzyme 50 units/dl, pH 4.0, 30° C., 3 hours. How it is done: Inosine (2 g/dl) and sodium tripolyphosphate, sodium polyphosphate (trade name: Polygon P, produced by Chiyoda Chemical), disodium phenylphosphate, or disodium carbamyl phosphate (10 g/dl) as a phosphate group donor were dissolved in sodium acetate buffer (pH 4.0), to which the enzyme sample prepared in Example 1 was added so that its concentration was 50 units/dl. The reaction mixture was incubated at 30° C. for 3 hours while maintaining pH at 4.0.

T1 sequence (P28581 21-249): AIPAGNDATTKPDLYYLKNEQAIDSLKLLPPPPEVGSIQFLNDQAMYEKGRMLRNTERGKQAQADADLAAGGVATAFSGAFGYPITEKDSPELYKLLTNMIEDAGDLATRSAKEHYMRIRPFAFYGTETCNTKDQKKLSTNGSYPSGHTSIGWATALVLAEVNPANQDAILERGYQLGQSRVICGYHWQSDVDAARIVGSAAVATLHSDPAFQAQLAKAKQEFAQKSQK
T2 sequence (P28581 21-249): as above

With `[Ag+2]` [Ag^2+], the “Effect of the addition of metal ion and inhibitor on activity” value in [1] and in test [2] was “inhibited” each time.
Turning to `[Cu+2]` [Cu^2+], the “Effect of the addition of metal ion and inhibitor on activity” value in [1] and in [2] was “inhibited” each time.
With `Nc1ccn([C@@H]2O[C@H](CO)[C@@H](O)[C@H]2O)c(=O)n1` [Cytidine, cytidine], in [3], the “Amount Produced (nucleoside-5′-phosphate ester)” value came to 6.60 g/dL. The “Amount of the Product (nucleoside-5′-phosphate ester)” value (“Amount of the Product” below) in the test with E. coli JM109/pEPI380 [4] worked out at 10.65 g/dL. Besides, the “Amount Produced (nucleoside-5′-ester)” value in test [5] came to 1.22 g/dL; in test [6], 0.98 g/dL.
As for `NC(=O)OP(=O)([O-])[O-].[Na+].[Na+]` [Disodium carbamyl phosphate, disodium carbamyl phosphate], the “Amount of 5′-inosinic acid formed” value in the test with E. coli JM109/pEPI380 [7] came out at 12.42 g/dL. For the same molecule, the “Produced 5′-inosinic acid” value in test [8] is 1.53 g/dL; in test [9] it was 7.73 g/dL; in [10], 2.54 g/dL.
Taken in the same sequence, the figures for `O=P([O-])([O-])Oc1ccccc1.[Na+].[Na+]` [Disodium phenylphosphate, disodium phenylphosphate] were 12.84 g/dL, 1.50 g/dL, 7.60 g/dL and 2.33 g/dL.
Take `[Fe+2]` [Fe^2+]: the “Effect of the addition of metal ion and inhibitor on activity” value in test [1] is on record as “inhibited”.
Take `Nc1nc2c(ncn2[C@@H]2O[C@H](CO)[C@@H](O)[C@H]2O)c(=O)[nH]1` [Guanosine, guanosine]: the “Amount Produced (nucleoside-5′-phosphate ester)” value in test [3] came to 4.77 g/dL. Also, in the test with E. coli JM109/pEPI380 [4], the “Amount of the Product” value was found to be 5.78 g/dL. Moreover, the “Amount Produced (nucleoside-5′-ester)” value turned out to be 1.05 g/dL in [5] and 1.90 g/dL in [6].
Take `[Hg+2]` [Hg^2+]: the “Effect of the addition of metal ion and inhibitor on activity” value in test [1] and in test [2] was “inhibited” in each case.
On to `OC[C@H]1O[C@@H](n2cnc3c(O)ncnc32)[C@H](O)[C@@H]1O` [Inosine, inosine], for which the “Amount Produced (nucleoside-5′-phosphate ester)” value in [3] is 7.45 g/dL. Also, the “Amount of the Product” value with E. coli JM109/pEPI380 [4] was found to be 12.05 g/dL. Further, the entries for the “Amount Produced (nucleoside-5′-ester)” value in test [5] and in [6] were 1.56 g/dL and 2.60 g/dL, respectively.
In the case of `[Pb+2]` [Pb^2+], the “Effect of the addition of metal ion and inhibitor on activity” value in [1] and in [2] was “inhibited” throughout.
For `O=P(O)(O)OP(=O)(O)OP(=O)(O)O` [Sodium tripolyphosphate, sodium tripolyphosphate], the “Amount of 5′-inosinic acid formed” value in the test on E. coli JM109/pEPI380 [7] was determined as 10.84 g/dL. In addition, the “Produced 5′-inosinic acid” value in test [8] came out at 1.20 g/dL; in test [9], 5.96 g/dL; in test [10], 2.10 g/dL.
As to `O=c1ccn([C@@H]2O[C@H](CO)[C@@H](O)[C@H]2O)c(=O)[nH]1` [Uridine, uridine], the “Amount Produced (nucleoside-5′-phosphate ester)” value in test [3] came to 8.93 g/dL. The “Amount of the Product” value in the test with E. coli JM109/pEPI380 [4] worked out at 13.28 g/dL. Further, the entries for the “Amount Produced (nucleoside-5′-ester)” value in [5] and in [6] were 1.87 g/dL and 1.30 g/dL, respectively.
As for `O=C(O)CI` [iodoacetic acid], the “Effect of the addition of metal ion and inhibitor on activity” value in test [1] and in test [2] was “inhibited” in each case.
For `CC(=O)OP(=O)([O-])[O-].[K+].[Li+]` [potassium lithium acetylphosphate], the “Amount of 5′-inosinic acid formed” value in the test on E. coli JM109/pEPI380 [7] is 10.65 g/dL.
On to sodium polyphosphate, for which the “Amount of 5′-inosinic acid formed” value in the test on E. coli JM109/pEPI380 [7] is 13.35 g/dL. In addition, the “Produced 5′-inosinic acid” value was 1.79 g/dL in test [8], 8.84 g/dL in [9] and 2.72 g/dL in [10].
